Measured values reported in patent US20100137449A1, “SUBSTITUTED 1,3-CYCLOPENTADIONE MULTI-TARGET PROTEIN KINASE MODULATORS OF CANCER, ANGIOGENESIS AND THE INFLAMMATORY PATHWAYS ASSOCIATED THEREWITH” (METAPROTEOMICS, LLC, priority 2007, published 2010).

Assays:
Test in all cases: KinaseProfiler Assay
[1] = target: CaMKIIδ(h) (Homo sapiens, UniProt Q13557)
[2] = target: CDK2/cyclinA(h) (Homo sapiens, UniProt P24941)
[3] = target: CDK9/cyclin T1(h) (Homo sapiens, UniProt P50750)
[4] = target: CK1γ2(h) (Homo sapiens, UniProt P78368)
[5] = target: Fer(h) (Homo sapiens, UniProt P16591)
[6] = target: Met(h) (Homo sapiens, UniProt P08581)
[7] = target: MRCKα(h) (Homo sapiens, UniProt Q5VT25)
[8] = target: MSK1(h) (Homo sapiens, UniProt O75582)
[9] = target: T1, NLK(h) (Homo sapiens, UniProt Q9UBE8)
T1 sequence (Q9UBE8 1-527): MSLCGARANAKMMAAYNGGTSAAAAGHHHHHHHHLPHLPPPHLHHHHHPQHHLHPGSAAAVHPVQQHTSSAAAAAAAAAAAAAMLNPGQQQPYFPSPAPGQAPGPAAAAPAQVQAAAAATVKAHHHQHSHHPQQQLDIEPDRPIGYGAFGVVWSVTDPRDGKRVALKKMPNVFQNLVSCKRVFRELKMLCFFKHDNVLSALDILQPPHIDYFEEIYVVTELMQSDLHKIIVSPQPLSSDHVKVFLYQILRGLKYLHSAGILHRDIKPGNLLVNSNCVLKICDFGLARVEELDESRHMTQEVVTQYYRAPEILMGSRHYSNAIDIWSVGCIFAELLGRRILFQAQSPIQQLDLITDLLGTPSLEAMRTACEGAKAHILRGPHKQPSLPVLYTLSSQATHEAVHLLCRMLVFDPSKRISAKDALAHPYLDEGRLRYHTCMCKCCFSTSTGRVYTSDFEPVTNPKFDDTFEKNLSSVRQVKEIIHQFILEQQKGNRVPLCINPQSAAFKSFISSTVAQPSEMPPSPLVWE

[10] = target: PKA(h) (Homo sapiens, UniProt P17612)
[11] = target: PKCθ(h) (Homo sapiens, UniProt Q04759)
[12] = target: Ret(V804L)(h) (Homo sapiens, UniProt P07949, V804L)
[13] = target: Rsk1(h) (Homo sapiens, UniProt Q15418)
[14] = target: ZIPK(h) (Homo sapiens, UniProt O43293)
Chain of ZIPK(h) (O43293 whole entry): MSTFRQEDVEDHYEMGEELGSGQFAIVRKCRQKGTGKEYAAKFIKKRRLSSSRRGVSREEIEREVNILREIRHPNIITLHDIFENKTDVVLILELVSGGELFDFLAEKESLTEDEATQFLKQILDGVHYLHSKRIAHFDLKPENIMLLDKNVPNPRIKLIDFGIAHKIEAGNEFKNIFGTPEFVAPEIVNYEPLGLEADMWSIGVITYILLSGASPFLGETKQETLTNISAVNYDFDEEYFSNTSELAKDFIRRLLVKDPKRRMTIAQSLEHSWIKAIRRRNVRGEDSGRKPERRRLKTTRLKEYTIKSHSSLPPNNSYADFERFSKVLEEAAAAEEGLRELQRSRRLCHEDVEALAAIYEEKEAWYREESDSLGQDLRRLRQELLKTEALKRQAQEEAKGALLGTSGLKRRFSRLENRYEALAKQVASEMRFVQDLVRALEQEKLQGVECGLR

Chain of Ret(V804L)(h) (P07949 29-1114 V804L): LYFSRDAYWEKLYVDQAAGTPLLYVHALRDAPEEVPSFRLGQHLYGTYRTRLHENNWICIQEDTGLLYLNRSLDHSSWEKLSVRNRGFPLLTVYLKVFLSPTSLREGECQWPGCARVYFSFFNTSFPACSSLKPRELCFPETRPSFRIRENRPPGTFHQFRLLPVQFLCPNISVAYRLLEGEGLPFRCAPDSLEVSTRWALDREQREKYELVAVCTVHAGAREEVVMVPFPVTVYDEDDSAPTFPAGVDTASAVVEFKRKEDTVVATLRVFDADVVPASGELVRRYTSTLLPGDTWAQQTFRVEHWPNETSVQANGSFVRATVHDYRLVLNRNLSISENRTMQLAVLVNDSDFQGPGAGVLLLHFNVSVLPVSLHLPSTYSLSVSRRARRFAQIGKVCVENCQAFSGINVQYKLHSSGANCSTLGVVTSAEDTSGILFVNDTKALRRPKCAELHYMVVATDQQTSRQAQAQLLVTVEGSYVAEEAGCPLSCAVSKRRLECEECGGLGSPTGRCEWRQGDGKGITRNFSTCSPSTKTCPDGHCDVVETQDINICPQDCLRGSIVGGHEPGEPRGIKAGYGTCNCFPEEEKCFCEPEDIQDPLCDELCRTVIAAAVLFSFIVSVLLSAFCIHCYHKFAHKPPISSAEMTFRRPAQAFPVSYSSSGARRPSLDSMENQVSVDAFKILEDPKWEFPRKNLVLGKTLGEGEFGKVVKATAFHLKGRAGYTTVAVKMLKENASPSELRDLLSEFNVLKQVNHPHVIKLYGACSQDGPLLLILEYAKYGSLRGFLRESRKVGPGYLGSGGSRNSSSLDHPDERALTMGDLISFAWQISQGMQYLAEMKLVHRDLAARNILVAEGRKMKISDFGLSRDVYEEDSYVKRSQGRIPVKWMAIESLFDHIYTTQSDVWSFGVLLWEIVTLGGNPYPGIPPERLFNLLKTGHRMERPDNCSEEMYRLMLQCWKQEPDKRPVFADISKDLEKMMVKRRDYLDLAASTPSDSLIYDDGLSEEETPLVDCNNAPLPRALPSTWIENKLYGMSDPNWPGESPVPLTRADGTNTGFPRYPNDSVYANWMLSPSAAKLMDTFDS
Chain of Fer(h) (P16591 whole entry): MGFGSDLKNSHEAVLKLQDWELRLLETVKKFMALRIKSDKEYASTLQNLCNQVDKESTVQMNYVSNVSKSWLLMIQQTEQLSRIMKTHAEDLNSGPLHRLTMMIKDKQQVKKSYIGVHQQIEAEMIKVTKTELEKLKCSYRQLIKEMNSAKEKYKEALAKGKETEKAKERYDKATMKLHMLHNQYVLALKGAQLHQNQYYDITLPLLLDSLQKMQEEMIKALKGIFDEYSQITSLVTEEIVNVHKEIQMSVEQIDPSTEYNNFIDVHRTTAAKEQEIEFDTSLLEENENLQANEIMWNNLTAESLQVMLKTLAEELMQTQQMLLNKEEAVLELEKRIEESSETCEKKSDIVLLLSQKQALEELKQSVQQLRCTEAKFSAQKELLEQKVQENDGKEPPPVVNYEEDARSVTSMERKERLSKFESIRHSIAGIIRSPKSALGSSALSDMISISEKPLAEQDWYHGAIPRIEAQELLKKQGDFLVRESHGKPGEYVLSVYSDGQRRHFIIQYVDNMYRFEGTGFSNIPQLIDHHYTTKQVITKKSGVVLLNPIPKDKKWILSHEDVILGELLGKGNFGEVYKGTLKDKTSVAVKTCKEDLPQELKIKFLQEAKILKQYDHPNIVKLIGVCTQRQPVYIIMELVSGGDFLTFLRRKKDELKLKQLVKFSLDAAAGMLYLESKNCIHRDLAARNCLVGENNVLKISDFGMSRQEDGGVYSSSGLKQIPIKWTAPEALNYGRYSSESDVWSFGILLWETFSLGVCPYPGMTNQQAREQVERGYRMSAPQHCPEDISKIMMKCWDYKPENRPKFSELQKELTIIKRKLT
Chain of PKCθ(h) (Q04759 whole entry): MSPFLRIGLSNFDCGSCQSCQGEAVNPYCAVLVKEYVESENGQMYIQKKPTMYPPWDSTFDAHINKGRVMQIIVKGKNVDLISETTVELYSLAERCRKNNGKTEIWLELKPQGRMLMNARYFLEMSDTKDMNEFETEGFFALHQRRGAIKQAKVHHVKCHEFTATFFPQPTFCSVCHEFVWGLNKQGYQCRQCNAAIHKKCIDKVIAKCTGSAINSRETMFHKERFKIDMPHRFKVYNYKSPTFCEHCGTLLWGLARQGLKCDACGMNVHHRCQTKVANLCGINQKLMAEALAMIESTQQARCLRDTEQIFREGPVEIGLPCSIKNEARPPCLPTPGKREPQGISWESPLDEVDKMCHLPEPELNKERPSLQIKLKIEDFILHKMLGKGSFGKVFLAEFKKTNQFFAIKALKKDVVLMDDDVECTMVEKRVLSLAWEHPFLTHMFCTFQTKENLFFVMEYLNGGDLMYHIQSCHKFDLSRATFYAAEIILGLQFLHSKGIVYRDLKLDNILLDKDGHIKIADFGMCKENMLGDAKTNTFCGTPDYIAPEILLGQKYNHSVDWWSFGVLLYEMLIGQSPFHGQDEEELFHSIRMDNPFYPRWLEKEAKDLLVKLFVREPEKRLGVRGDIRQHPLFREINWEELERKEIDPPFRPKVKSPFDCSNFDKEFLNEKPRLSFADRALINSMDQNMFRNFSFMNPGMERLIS
Chain of MRCKα(h) (Q5VT25 whole entry): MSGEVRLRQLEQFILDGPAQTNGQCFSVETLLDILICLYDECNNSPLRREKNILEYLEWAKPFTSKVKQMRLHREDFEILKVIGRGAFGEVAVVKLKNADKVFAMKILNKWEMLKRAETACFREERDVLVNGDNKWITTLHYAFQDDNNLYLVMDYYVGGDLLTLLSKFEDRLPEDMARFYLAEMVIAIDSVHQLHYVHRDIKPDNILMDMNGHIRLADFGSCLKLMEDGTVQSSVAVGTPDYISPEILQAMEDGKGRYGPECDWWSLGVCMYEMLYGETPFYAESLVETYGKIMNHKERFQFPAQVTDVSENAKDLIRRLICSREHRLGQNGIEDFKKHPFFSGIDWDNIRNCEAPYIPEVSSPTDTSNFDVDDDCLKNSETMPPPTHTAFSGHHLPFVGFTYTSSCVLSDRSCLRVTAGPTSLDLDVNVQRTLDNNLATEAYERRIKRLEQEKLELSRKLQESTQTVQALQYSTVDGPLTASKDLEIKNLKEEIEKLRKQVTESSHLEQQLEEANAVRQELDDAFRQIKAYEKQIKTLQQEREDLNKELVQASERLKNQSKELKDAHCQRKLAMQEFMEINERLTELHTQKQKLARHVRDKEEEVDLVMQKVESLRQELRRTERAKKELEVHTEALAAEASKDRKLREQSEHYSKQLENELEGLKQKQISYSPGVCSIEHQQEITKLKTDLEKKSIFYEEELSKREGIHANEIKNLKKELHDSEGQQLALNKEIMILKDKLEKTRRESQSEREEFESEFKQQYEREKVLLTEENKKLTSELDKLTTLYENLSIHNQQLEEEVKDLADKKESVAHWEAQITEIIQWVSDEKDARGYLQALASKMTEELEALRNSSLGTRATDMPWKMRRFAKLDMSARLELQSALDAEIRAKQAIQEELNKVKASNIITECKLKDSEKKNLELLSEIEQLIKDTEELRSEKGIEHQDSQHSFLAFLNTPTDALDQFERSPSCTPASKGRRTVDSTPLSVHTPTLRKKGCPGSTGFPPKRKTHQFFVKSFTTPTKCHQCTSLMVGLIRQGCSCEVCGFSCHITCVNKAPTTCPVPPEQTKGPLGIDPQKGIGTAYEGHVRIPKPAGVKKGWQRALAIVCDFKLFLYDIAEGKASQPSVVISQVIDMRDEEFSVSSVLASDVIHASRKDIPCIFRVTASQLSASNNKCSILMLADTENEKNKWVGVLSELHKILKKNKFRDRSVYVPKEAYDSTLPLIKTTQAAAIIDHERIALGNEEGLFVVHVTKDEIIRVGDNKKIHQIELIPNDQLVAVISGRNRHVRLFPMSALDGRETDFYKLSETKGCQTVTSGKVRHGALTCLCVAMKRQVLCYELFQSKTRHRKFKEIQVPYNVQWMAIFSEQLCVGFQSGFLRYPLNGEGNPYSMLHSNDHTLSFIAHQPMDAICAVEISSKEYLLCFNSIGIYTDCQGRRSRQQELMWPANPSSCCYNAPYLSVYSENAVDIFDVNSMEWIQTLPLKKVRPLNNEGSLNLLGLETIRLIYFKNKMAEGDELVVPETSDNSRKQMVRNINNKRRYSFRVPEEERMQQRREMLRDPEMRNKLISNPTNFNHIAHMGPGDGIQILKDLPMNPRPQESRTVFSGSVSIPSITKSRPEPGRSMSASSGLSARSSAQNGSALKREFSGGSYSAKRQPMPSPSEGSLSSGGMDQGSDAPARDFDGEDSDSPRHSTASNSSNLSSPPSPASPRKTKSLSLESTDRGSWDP

## CC(C)CCC(=O)[C@]1(O)C(O)=C(C(=O)C(C)C)C(=O)[C@H]1CCC(C)C [TH2, tetrahydroiso-cohumulone]
[1]; 1 μg/ml
  kinase inhibition: 99% of control
[1]; 5 μg/ml
  kinase inhibition: 99% of control
[1]; 25 μg/ml
  kinase inhibition: 100% of control
[1]; 50 μg/ml
  kinase inhibition: 91% of control
[1]; 100 μg/ml
  kinase inhibition: 87% of control
[2]; 1 μg/ml
  kinase inhibition: 114% of control
[2]; 5 μg/ml
  kinase inhibition: 124% of control
[2]; 25 μg/ml
  kinase inhibition: 95% of control
[2]; 50 μg/ml
  kinase inhibition: 98% of control
[2]; 100 μg/ml
  kinase inhibition: 87% of control
[3]; 1 μg/ml
  kinase inhibition: 99% of control
[3]; 5 μg/ml
  kinase inhibition: 102% of control
[3]; 25 μg/ml
  kinase inhibition: 78% of control
[3]; 50 μg/ml
  kinase inhibition: 63% of control
[3]; 100 μg/ml
  kinase inhibition: 49% of control
[4]; 1 μg/ml
  kinase inhibition: 103% of control
[4]; 5 μg/ml
  kinase inhibition: 96% of control
[4]; 25 μg/ml
  kinase inhibition: 79% of control
[4]; 50 μg/ml
  kinase inhibition: 54% of control
[4]; 100 μg/ml
  kinase inhibition: 49% of control
[5]; 1 μg/ml
  kinase inhibition: 110% of control
[5]; 5 μg/ml
  kinase inhibition: 102% of control
[5]; 25 μg/ml
  kinase inhibition: 104% of control
[5]; 50 μg/ml
  kinase inhibition: 91% of control
[5]; 100 μg/ml
  kinase inhibition: 88% of control
[6]; 1 μg/ml
  kinase inhibition: 114% of control
[6]; 5 μg/ml
  kinase inhibition: 113% of control
[6]; 25 μg/ml
  kinase inhibition: 97% of control
[6]; 50 μg/ml
  kinase inhibition: 83% of control
[6]; 100 μg/ml
  kinase inhibition: 61% of control
[7]; 1 μg/ml
  kinase inhibition: 100% of control
[7]; 5 μg/ml
  kinase inhibition: 94% of control
[7]; 25 μg/ml
  kinase inhibition: 112% of control
[7]; 50 μg/ml
  kinase inhibition: 102% of control
[7]; 100 μg/ml
  kinase inhibition: 97% of control
[8]; 1 μg/ml
  kinase inhibition: 98% of control
[8]; 5 μg/ml
  kinase inhibition: 103% of control
[8]; 25 μg/ml
  kinase inhibition: 92% of control
[8]; 50 μg/ml
  kinase inhibition: 64% of control
[8]; 100 μg/ml
  kinase inhibition: 52% of control
[9]; 1 μg/ml
  kinase inhibition: 105% of control
[9]; 5 μg/ml
  kinase inhibition: 104% of control
[9]; 25 μg/ml
  kinase inhibition: 98% of control
[9]; 50 μg/ml
  kinase inhibition: 96% of control
[9]; 100 μg/ml
  kinase inhibition: 85% of control
[10]; 1 μg/ml
  kinase inhibition: 131% of control
[10]; 5 μg/ml
  kinase inhibition: 124% of control
[10]; 25 μg/ml
  kinase inhibition: 93% of control
[10]; 50 μg/ml
  kinase inhibition: 94% of control
[10]; 100 μg/ml
  kinase inhibition: 86% of control
[11]; 1 μg/ml
  kinase inhibition: 101% of control
[11]; 5 μg/ml
  kinase inhibition: 84% of control
[11]; 25 μg/ml
  kinase inhibition: 116% of control
[11]; 50 μg/ml
  kinase inhibition: 96% of control
[11]; 100 μg/ml
  kinase inhibition: 83% of control
[12]; 1 μg/ml
  kinase inhibition: 110% of control
[12]; 5 μg/ml
  kinase inhibition: 103% of control
[12]; 25 μg/ml
  kinase inhibition: 91% of control
[12]; 50 μg/ml
  kinase inhibition: 81% of control
[12]; 100 μg/ml
  kinase inhibition: 60% of control
[13]; 1 μg/ml
  kinase inhibition: 97% of control
[13]; 5 μg/ml
  kinase inhibition: 95% of control
[13]; 25 μg/ml
  kinase inhibition: 65% of control
[13]; 50 μg/ml
  kinase inhibition: 53% of control
[13]; 100 μg/ml
  kinase inhibition: 32% of control
[14]; 1 μg/ml
  kinase inhibition: 106% of control
[14]; 5 μg/ml
  kinase inhibition: 96% of control
[14]; 25 μg/ml
  kinase inhibition: 91% of control
[14]; 50 μg/ml
  kinase inhibition: 81% of control
[14]; 100 μg/ml
  kinase inhibition: 76% of control
